In patent US7300929B2, “Mediators of hedgehog signaling pathways, compositions and uses related thereto” (Curis, Inc., priority 1999, dated 2007):

How the values were obtained:
[1] = tested on: Patched pathway in ptc-null cells; assay: Ptc-null assay (gli-1 mRNA by RT-PCR and real-time PCR); type: cell-based, mouse; conditions: 3 days, 5 μM
Description: […] Total ribonucleic acid (RNA) was isolated from the cells and used for reverse transcriptase-polymerase chain reaction (RT-PCR). […] The gli-1 and actin mRNA samples were then loaded on 1.5% agarose gel and were detected by staining with ethidium bromide. The same samples were analyzed by the quantitative real-time polymerase chain reaction method to quantify the levels of gli-1 mRNA.

[2] = tested on: Patched pathway / ultraviolet radiation-induced BCC tumors; assay: Adult BCC mouse skin punch assay; type: cell-based; conditions: positive control, 6 days, vs vehicle
Description: Ptc heterozygous transgenic mice were irradiated 3 times weekly for 6 months, during which time many small, and often microscopic, BCC tumors developed. Four-mm diameter skin punch explants, presumably containing BCC structures, were cultured for 6 days in the presence of vehicle, the positive control (jervine), or 5 μM D. At the end of the experiment, the explants were analyzed by X-gal staining to detect the level of Patched pathway activity, by histology to determine the effect of treatment on the morphology of ultraviolet radiation-induced BCCs, and by quantifying the level of gli-1 mRNA expression to characterize the extent of pathway inhibition.

CC1=C2C(=O)[C@H]3[C@@H](CC=C4C[C@@H](O)CC[C@@]43C)[C@@H]2CC[C@]12O[C@@H]1C[C@H](C)CN[C@H]1[C@H]2C [jervine]
gli-1 mRNA levels (quantitative real-time PCR) [1]: downregulated | expression of gli-1 mRNA (RT-PCR, agarose gel) ([1]; vs vehicle): significantly decreased | number and size of BCC structures (X-gal staining) [2]: greatly decreased
